PubChem BioAssay AID602191 (Broad Institute, 2012)
The source made the active and inactive calls.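 Rule for the calls: active = fitted curve reaches 40% activation at a concentration no higher than the top valid tested dose; inconclusive = flat fit between 30% and 70% activation, or poor fit; inactive = uptake decrease, flat fit within 30% of zero, the rest.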

biological target: Scavenger receptor class B member 1 (Mus musculus) (UniProt Q61009); assay: enhancers of DiI-HDL lipid transfer via SR-BI – cell-based, ldlA[mSR-BI] CHO, DiI fluorescence, cherry-pick, dose response (AID 602191); conditions: ldlA[mSR-BI] CHO cells, 3 h, at 35 µM (top of the series);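 note: cell fluorescence from internalized DiI-labeled HDL after washing; 0% = median of DMSO wells and 100% = twice the DMSO signal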
Sequence (Q61009 whole entry, looked up): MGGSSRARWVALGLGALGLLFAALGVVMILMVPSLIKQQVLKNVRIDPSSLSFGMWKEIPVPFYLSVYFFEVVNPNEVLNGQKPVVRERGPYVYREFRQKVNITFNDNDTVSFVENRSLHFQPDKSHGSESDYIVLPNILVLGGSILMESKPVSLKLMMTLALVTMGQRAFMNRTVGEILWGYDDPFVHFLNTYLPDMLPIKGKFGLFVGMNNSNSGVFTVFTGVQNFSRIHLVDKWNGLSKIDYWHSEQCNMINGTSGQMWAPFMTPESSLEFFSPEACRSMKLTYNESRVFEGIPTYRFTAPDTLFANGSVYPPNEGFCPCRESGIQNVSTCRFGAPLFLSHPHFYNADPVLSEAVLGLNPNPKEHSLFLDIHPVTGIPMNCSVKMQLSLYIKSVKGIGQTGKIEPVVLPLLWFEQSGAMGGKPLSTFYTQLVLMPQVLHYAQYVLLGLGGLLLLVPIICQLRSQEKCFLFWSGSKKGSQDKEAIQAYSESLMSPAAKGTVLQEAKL

Activation (HDL uptake increase), inactive:
COc1ccc(N2C(=O)C(CC(=O)Nc3ccc(F)cc3)N(CCc3cccs3)C2=O)cc1 (stereo not drawn) -4.44%
COCCCNC(=O)CCSc1ccc(Cl)cc1 -8.45%
CN(C)CCCNC(=O)/C=C/c1ccc2c(c1)OCO2 -4.26%
Cc1cccn2c(CN[C@@H]3CCCC[C@H]3c3ccccc3)c(C(=O)N3CCOCC3)nc12 -6.75%
COc1ccccc1Cc1nnnn1CC(=O)O -7.37%
O=C(COC(=O)c1ccco1)c1ccc(S(=O)(=O)N2CCCCC2)cc1 -16.4%
CC1Cc2cc(/C(O)=C3/C(=O)C(=O)N(CCN4CCOCC4)C3c3ccc([N+](=O)[O-])cc3)ccc2O1 (stereo not drawn) 13.1%
Cc1[nH]c2ccccc2c1C(=O)CSC(=S)N(C)C1CCCCC1 -5.9%
